Counter-ions that a name gives are not always drawn.
Columns and labels:
Type in all cases: physicochemical
[1] = Solid form and hygroscopicity of the salts as obtained (comparative examples); conditions: for hygroscopicity (in words) / solid form (in words): product as obtained
Method: (§1) A crude product of ethyl (2R,4S)-5-(biphenyl-4-yl)-4-[(3-carboxypropionyl)amino]-2-methylpentanoate (52.4 g, 0.125 mol) and acetone (629 ml) were added to a 1 L three-necked flask equipped with a mechanical stirrer, stirred and dissolved at room temperature; cooled to 0-10° C. for 5-10 min, added dropwise with potassium hydroxide solution (25 ml, 5 mol/L), after the addition was completed, kept stirring for 1 h, concentrated to dryness, added with methanol (125 ml) or ethanol (125 ml), concentrated to dryness to give potassium 4((2S,4R)-1-([1,1′-biphenyl]-4-yl)-5-ethoxy-4-methyl-5-oxopentan-2-yl)amino)-4-oxobutanoate (AHU-377 potassium salt).
as §1, with “min and” for “min,”, “sodium” for “potassium”, “sodium 4-(((2S,4R)-1-([1,1′-biphenyl]-4-yl)-5-ethoxy-4-methyl-5-oxopentan-2-yl)amino)-4-oxobutyrate” for “potassium 4((2S,4R)-1-([1,1′-biphenyl]-4-yl)-5-ethoxy-4-methyl-5-oxopentan-2-yl)amino)-4-oxobutanoate”
A crude product of ethyl (2R,4S)-5-(biphenyl-4-yl)-4-[(3-carboxypropionyl)amino]-2-methylpentanoate (52.4 g, 0.125 mol) and acetone (629 ml) were added to a 1 L three-necked flask equipped with a mechanical stirrer, stirred and dissolved at room temperature: cooled to 0-10° C. for 5-10 min and added dropwise with a basic ammonium salt such as choline (15 g, 0.125 mol), after the addition was completed, kept stirring for 1 h, concentrated to dryness, added with methanol (125 ml) or ethanol (125 ml), and concentrated to dryness.

[2] = Drug interaction test: stability of the mixture of crystalline form I of the compound of formula (A) + compound of formula (B)
From the text: The applicant has found through repeated studies in the research of drug compatibility that the compound of formula (A), the crystalline form I, single crystal, amorphous form, crystalline form II thereof have good compatibility with the compound of formula (I) described in CN103709154A. A specific compound of formula (B) was selected to be mixed with the crystalline form I of the compound of formula (A) prepared in example 3 of the present disclosure for further stability studies.

[3] = Stability comparison test (main peak purity of the samples on storage); conditions: at 60° C. 60 days later (so in the source)
[4] = as above; conditions: for decrease of purity: at 25° C. 60 days later
Method: Each portion was about 100 mg, placed in a zip-lock bag and added with a desiccant, then three-layer packaged by a two-layer aluminum plastic material with each layer vacuumed, and stored at 25° C. (relative humidity 60%) and 40° C. […] Relevant substances of the samples were respectively determined at 0 day, 30 days, and 60 days later.

[5] = Water adsorption and desorption test (DVS, hygroscopicity); conditions: 25° C.; for change of hygroscopicity: under 80% humidity
Method: DVS detection of the ammonium salt: instrument model: TA Q5000SA, balance at 25° C., humidity start from 0.00%, balance for 180 min, balance for 15 min when the weight gain is less than 0.01%, 10% gradient humidity increase from 0.00% to 90.00%, each gradient maintained for 120 min; a 10% gradient humidity reduction procedure performed when the humidity is from 90.00% to 0.00%, each gradient maintained for 120 min.
DVS detection of other products: instrument model: SMS DVS Intrinsic, 0-95% RH, temperature: 25° C.
The water adsorption and desorption tests of the compound (A) of example 1 at 25° C., 0 to 95% relative humidity were carried out by a dynamic water adsorber (DVS) to determine the hygroscopicity of the compound of formula (A).
The water adsorption and desorption experiments of the crystalline form I of the compound of formula (A) prepared by methods of example 3 at 25° C., 0 to 95% relative humidity were carried out by a dynamic water adsorber (DVS) to determine the hygroscopicity of the crystalline form I of the compound of formula (A).
The water adsorption and desorption experiments of the sample of example 6 at 25° C., 0 to 95% relative humidity were carried out by a dynamic water adsorber (DVS) to determine the hygroscopicity of the amorphous form of the compound of formula (A).

[6] = 25° C. (relative humidity 60%), test time 0 day
[7] = 25° C. (relative humidity 60%), test time 30 days
[8] = 25° C. (relative humidity 60%), test time 60 days
[9] = 40° C. (relative humidity 75%), test time 0 day
[10] = 40° C. (relative humidity 75%), test time 30 days
[11] = 40° C. (relative humidity 75%), test time 60 days

Compound	hygroscopicity (in words) [1]	solid form (in words) [1]	decrease of purity [3] [%]	main peak purity [4, 6] [%]	main peak purity [4, 7] [%]	main peak purity [4, 8] [%]	main peak purity [4, 9] [%]	main peak purity [4, 10] [%]	main peak purity [4, 11] [%]	decrease of purity [4]	also measured
CCOC(=O)[C@H](C)C[C@@H](Cc1ccc(-c2ccccc2)cc1)NC(=O)CCC(=O)O [organic ammonium salt of 4 ((2S,4R)-1-([1,1′-biphenyl]-4-yl)]	high hygroscopicity	cannot be obtained in a solid form									
CCOc1nc2cccc(C(=O)OC(C)OC(=O)OCc3nc(C)c(C)nc3C)c2n1Cc1ccc(-c2ccccc2-c2noc(=O)[n-]2)cc1.[K+] (stereo not shown) [Formula (B)]											stability of the potassium salt of formula (B) in the mixture with crystalline form I compared with formula (B) as a single component [2]: superior; Maximum unknown single impurity ([2]; test time 0 day): 0.05%; Total impurities ([2]; test time 0 day): 0.72%; Maximum unknown single impurity ([2]; test time 30 days): 0.05%; Total impurities ([2]; test time 30 days): 1.29%; Maximum unknown single impurity ([2]; test time 60 days): 0.06%; Total impurities ([2]; test time 60 days): 1.67%; Maximum unknown single impurity ([2]; test time 90 days): 0.04%; Total impurities ([2]; test time 90 days): 1.99%
CCOC(=O)[C@H](C)C[C@@H](Cc1ccc(-c2ccccc2)cc1)NC(=O)CCC(=O)O [AHU-377 potassium salt]	highly hygroscopic	failed to exhibit a good solid form	0.74	93.63	93.31	93.28	94.11	94.05	93.37	0.35%	
CCOC(=O)C(C)CC(Cc1ccc(-c2ccccc2)cc1)NC(=O)CCC(=O)O (stereo not shown) [crystalline form II]											change of hygroscopicity ([5]; DVS): changes very little
CCOC(=O)C(C)CC(Cc1ccc(-c2ccccc2)cc1)NC(=O)CCC(=O)O (stereo not shown) [crystalline form I of the compound of formula (A)]											hygroscopicity compared with AHU-377 sodium salt and AHU-377 potassium salt [1]: significantly more hygroscopic; change of hygroscopicity ([5]; DVS): do not change much
CCOC(=O)C(C)CC(Cc1ccc(-c2ccccc2)cc1)NC(=O)CCC(=O)O [Compound of formula (A), ammonium 4-((2S,4R)-1-([1, l′-biphenyl]-4-yl)-5-ethoxy-4-methyl-5-oxopentan-2-yl)amino)-4-oxobutanoate]			0.24	99.82	99.80	99.82	99.82	99.68	99.58	almost unchanged	hygroscopicity ([5]; DVS, 0 to 95% relative humidity, FIG. 26): less than 2%; stability compared with the potassium salt and the sodium salt of AHU-377 [4]: far superior; stability compared with the organic ammonium salt of AHU-377 ([4]; by comparison in the same experiment): superior
CCOC(=O)[C@H](C)C[C@@H](Cc1ccc(-c2ccccc2)cc1)NC(=O)CCC(=O)[O-].[Na+] [AHU-377 sodium salt, sodium 4-(((2S,4R)-1-([1,1′-biphenyl]-4-yl)-5-ethoxy-4-methyl-5-oxopentan-2-yl)amino)-4-oxobutyrate]	highly hygroscopic despite less hygroscopic than potassium salt	does not exhibit a good solid form	0.26	94.12	94.16	93.75	94.12	94.06	93.86	0.37%	
CCOC(=O)C(C)CC(Cc1ccc(-c2ccccc2)cc1)NC(=O)CCC(=O)O (stereo not shown)											change of the form in DVS ([5]; range of 0 to 95% relative humidity, FIG. 15): do not change
